Test results taken from patent publication US20060122276A1, “Agent for inhibiting membrane virus reproduction, method for the production thereof, pharmaceutical composition and method for inhibiting viral infections” (priority 2003, published 2006).
Like-named read-outs stand apart in the source and are kept apart here.

Tests used:
[1] = for Solubility in o-Dichlorobenzene: solvent o-dichlorobenzene
[2] = test system: herpes simplex virus (HSV-1); assay: Antiviral activity with respect to HSV-1 in VERO cells; format: cell-based, type 1, strain L2; conditions: HSV-1, 10 TCD50/ml, VERO; for Degree of protection from CE virus, % A: substance contact time with cells 24 hrs; for Degree of protection from CE virus, % B: substance contact time with cells 48 hrs
Source text: Herpes simplex virus, type 1, strain L2, replicated in VERO cells was used in the investigation.
[…] acyclovir was used as positive control

HIV-1 = conditions: for CPE/syncytia, % / Viability of cells, %: HIV-1; for CPE/syncytia, %: Table 9; for Viability of cells, %: Table 9 (virus control 42)
Experimental: Cells Reinoculated humans lymphoblastoid cells MT-4 were used. […] The viability of the cells was determined from the color of a 0.4% solution of trypan blue.
Retrovir (azidothymidin) produced by GlaxoWellcome (Great Britain) was used as positive control.
The Antiviral activity of the preparations was investigated on a model of lymphoblastoid cells in a plastic 24-cell plate. The virus dose was 100 TCD50 (50% tissue cytopathic dose). […] The activity of the preparation was determined from the inhibition of the virus-induced cytopathic action (CPA) in the cell cultures and the virus antigen level in the culture fluid by immunoenzymatic analysis.

[3] = test system: lymphoblastoid human cells MT-4; assay: Cytotoxicity on non-infected human lymphoblastoid cells; format: cell-based; conditions: cytotoxicity
[4] = 300 μg/ml, human lymphoblastoid cells

Row | Compound | Solubility in o-Dichlorobenzene [1] | Degree of protection from CE virus, % A ([2]; 10.0 μg/ml) | Degree of protection from CE virus, % B ([2]; 10.0 μg/ml) | Antiviral activity with respect to HIV-1 compared with fullerene-polyamino-caproic acid (HIV-1) | CPE/syncytia, % (HIV-1; 0.1 μg/ml) | Viability of cells, % (HIV-1; 0.1 μg/ml) | CPE/syncytia, % (HIV-1; 0.5 μg/ml) | Viability of cells, % (HIV-1; 0.5 μg/ml) | CPE/syncytia, % (HIV-1; 1.0 μg/ml) | Viability of cells, % (HIV-1; 1.0 μg/ml) | CPE/syncytia, % (HIV-1; 10.0 μg/ml) | Viability of cells, % (HIV-1; 10.0 μg/ml) | other results
1 | c12c3c4c5c1c1c6c7c2c2c8c3c3c9c4c4c%10c5c5c1c1c6c6c%11c7c2c2c7c8c3c3c8c9c4c4c9c%10c5c5c1c1c6c6c%11c2c2c7c3c3c8c4c4c9c5c1c1c6c2c3c41 [Fullerene] | Yes | – | – | – | – | – | – | – | – | – | – | – | Solubility in Glacial acetic acid ([1]; solvent glacial acetic acid): No; Solubility in Toluene ([1]; solvent toluene): Yes; Solubility in Water ([1]; solvent water): No
2 | sodium salt of fullerene-polyamino-butyric acid [ABA] | No | 33.3% | 33.3% | lower antiviral activity | 25% | 52% | 15% | 65% | 10% | 71% | 0% | 72% | Degree of protection from CE virus, % A ([2]; 0.1 μg/ml): 0.0%; Degree of protection from CE virus, % B ([2]; 0.1 μg/ml): 33.3%; Degree of protection from CE virus, % A ([2]; 25.0 μg/ml): 100%; Degree of protection from CE virus, % B ([2]; 25.0 μg/ml): 100%; Degree of protection from CE virus, % A ([2]; 50.0 μg/ml): 100%; Degree of protection from CE virus, % B ([2]; 50.0 μg/ml): 100%
3 | sodium salt of fullerene-polyamino-octanoic acid [AOA] | – | 100% | 100% | lower antiviral activity | 25% | 50% | 25% | 53% | 25% | 57% | 0% | 60% | Degree of protection from CE virus, % A ([2]; 1.0 μg/ml): 33.3%; Degree of protection from CE virus, % B ([2]; 1.0 μg/ml): 100%; Viability of cells, % ([3]; 100 μg/ml, human lymphoblastoid cells (cell control 95)): 79%; Number of cells × 10^3/ml ([3]; 100 μg/ml, human lymphoblastoid cells (cell control 250)): 150 × 10^3/ml; Number of cells × 10^3/ml [3, 4]: 150 × 10^3/ml; Viability of cells, % [3, 4]: 82%
